Experiments:
[1] = system: human β-cells (dispersed human islet cells); assay: Human β-cell proliferation assay (Ki67 and insulin staining); format: cell-based; conditions: for Human β-Cell proliferation: 96 hours
DYRK1A = DYRK1A (Homo sapiens, UniProt Q13627); assay: FRET-based LanthaScreen Eu Kinase Binding Assay (Life Technologies)
CSNK2A1 = target: T1, CSNK2A1 (Homo sapiens, UniProt P68400); assay: KINOMEscan Assay (DiscoverX); format: binding; conditions: CSNK2A1; 10 μM
T1 construct: purchased DiscoverX

IRAK1 = target: T2, IRAK1 (Homo sapiens, UniProt P51617); assay: KINOMEscan Assay (DiscoverX); format: binding; conditions: IRAK1; 10 μM
T2 construct: purchased DiscoverX

HIPK3 = target: T3, HIPK3 (Homo sapiens, UniProt Q9H422); assay: KINOMEscan Assay (DiscoverX); format: binding; conditions: HIPK3; 10 μM
T3 construct: purchased DiscoverX

FLT3(D835V) = target: T4, FLT3(D835V) (Homo sapiens, UniProt P36888, D835V); assay: KINOMEscan Assay (DiscoverX); format: binding; conditions: FLT3(D835V) mutant; 10 μM; read-out: % DMSO Ctrl
T4 construct: purchased DiscoverX
T4 sequence (P36888 27-993 D835V): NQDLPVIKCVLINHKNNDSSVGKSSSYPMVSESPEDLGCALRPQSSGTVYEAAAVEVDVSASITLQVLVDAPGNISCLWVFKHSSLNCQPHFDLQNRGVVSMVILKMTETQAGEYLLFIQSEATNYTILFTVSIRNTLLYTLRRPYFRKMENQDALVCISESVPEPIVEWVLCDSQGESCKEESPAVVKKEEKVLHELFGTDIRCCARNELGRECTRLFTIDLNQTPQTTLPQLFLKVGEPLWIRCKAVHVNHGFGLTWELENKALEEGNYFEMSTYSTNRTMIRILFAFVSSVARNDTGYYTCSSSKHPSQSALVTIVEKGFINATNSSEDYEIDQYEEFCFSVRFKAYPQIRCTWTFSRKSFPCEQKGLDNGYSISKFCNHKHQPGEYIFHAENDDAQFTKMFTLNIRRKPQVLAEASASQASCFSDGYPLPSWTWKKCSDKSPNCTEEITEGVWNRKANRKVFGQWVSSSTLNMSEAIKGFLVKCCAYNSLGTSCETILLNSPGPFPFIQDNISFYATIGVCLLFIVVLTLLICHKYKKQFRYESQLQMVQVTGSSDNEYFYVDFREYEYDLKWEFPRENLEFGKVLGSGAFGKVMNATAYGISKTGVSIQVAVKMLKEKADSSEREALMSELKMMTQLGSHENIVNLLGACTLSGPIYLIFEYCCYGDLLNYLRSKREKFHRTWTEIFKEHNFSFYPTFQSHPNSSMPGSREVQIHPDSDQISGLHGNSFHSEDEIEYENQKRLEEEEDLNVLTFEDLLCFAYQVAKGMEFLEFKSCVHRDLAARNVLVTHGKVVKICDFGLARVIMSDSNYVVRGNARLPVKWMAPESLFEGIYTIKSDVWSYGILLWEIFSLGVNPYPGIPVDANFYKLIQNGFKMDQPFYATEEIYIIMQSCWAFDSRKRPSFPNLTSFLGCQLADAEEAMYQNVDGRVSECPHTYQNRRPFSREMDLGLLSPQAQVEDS

PIM3 = target: T5, PIM3 (Homo sapiens, UniProt Q86V86); assay: KINOMEscan Assay (DiscoverX); format: binding; conditions: PIM3; 10 μM; read-out: % DMSO Ctrl
T5 construct: purchased DiscoverX

VPS34 = target: T6, VPS34 (Homo sapiens, UniProt Q8NEB9); assay: KINOMEscan Assay (DiscoverX); format: binding; conditions: VPS34; 10 μM
T6 construct: purchased DiscoverX

PIK3CG = target: T7, PIK3CG (Homo sapiens, UniProt P48736); assay: KINOMEscan Assay (DiscoverX); format: binding; conditions: read-out: % DMSO Ctrl
T7 construct: purchased DiscoverX

[2] = target: T8, JAK3(JH1DOMAIN-CATALYTIC) (Homo sapiens, UniProt P52333); assay: KINOMEscan Assay (DiscoverX); format: binding; conditions: JAK3(JH1DOMAIN-[…]); 10 μM; read-out: % DMSO Ctrl
T8 construct: JH1DOMAIN; purchased DiscoverX

CSNK1G2 = target: T9, CSNK1G2 (Homo sapiens, UniProt P78368); assay: KINOMEscan Assay (DiscoverX); format: binding; conditions: CSNK1G2; 10 μM
T9 construct: purchased DiscoverX

[3] = system: NFAT2-GFP nuclear translocation in R7T1 rodent beta cells; assay: NFAT2 translocation assay; format: cell-based; conditions: 10 μM, 24 hours
Text: NFAT2T Translocation Assay. […] At least 1000 cells were counted.

HIPK2 = target: T10, HIPK2 (Homo sapiens, UniProt Q9H2X6); assay: KINOMEscan Assay (DiscoverX); format: binding; conditions: HIPK2; 10 μM
T10 construct: purchased DiscoverX

FLT3(ITD) = assay: KINOMEscan Assay (DiscoverX); format: binding; conditions: FLT3(ITD) mutant; 10 μM
FLT3(ITD,D835V) = assay: KINOMEscan Assay (DiscoverX); format: binding; conditions: FLT3(ITD,D835V) mutant; 10 μM
[4] = 10 μM, KI67 labeling of insulin cells

T7 sequence (P48736 whole entry): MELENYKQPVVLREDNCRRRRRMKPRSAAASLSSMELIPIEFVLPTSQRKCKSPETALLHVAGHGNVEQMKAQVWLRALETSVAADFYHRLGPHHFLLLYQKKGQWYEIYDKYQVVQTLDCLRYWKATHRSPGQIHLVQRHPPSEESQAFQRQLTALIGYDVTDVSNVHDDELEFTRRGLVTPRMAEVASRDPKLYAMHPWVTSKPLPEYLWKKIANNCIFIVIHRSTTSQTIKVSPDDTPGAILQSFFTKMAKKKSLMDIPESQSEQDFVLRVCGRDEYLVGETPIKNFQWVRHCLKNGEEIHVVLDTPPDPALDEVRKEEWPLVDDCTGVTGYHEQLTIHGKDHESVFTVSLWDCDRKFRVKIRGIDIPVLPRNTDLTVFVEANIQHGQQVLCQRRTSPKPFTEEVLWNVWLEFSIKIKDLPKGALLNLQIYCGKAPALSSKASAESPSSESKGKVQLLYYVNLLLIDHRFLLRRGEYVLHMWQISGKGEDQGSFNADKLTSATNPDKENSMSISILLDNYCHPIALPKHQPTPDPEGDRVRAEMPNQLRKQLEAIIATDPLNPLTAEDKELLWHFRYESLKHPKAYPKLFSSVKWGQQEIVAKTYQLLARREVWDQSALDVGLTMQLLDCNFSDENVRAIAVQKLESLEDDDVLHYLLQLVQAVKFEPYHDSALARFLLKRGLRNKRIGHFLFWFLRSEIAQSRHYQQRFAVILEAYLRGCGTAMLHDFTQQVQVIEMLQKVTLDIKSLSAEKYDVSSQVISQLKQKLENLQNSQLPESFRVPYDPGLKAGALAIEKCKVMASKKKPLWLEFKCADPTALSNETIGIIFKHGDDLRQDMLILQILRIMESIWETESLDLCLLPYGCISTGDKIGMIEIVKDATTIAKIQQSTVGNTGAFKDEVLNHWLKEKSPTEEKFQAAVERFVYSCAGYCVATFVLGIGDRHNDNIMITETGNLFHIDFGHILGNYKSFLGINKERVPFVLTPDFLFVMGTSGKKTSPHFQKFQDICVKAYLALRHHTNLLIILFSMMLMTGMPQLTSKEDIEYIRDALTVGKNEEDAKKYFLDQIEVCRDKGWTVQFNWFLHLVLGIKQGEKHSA
T10 sequence (Q9H2X6 whole entry): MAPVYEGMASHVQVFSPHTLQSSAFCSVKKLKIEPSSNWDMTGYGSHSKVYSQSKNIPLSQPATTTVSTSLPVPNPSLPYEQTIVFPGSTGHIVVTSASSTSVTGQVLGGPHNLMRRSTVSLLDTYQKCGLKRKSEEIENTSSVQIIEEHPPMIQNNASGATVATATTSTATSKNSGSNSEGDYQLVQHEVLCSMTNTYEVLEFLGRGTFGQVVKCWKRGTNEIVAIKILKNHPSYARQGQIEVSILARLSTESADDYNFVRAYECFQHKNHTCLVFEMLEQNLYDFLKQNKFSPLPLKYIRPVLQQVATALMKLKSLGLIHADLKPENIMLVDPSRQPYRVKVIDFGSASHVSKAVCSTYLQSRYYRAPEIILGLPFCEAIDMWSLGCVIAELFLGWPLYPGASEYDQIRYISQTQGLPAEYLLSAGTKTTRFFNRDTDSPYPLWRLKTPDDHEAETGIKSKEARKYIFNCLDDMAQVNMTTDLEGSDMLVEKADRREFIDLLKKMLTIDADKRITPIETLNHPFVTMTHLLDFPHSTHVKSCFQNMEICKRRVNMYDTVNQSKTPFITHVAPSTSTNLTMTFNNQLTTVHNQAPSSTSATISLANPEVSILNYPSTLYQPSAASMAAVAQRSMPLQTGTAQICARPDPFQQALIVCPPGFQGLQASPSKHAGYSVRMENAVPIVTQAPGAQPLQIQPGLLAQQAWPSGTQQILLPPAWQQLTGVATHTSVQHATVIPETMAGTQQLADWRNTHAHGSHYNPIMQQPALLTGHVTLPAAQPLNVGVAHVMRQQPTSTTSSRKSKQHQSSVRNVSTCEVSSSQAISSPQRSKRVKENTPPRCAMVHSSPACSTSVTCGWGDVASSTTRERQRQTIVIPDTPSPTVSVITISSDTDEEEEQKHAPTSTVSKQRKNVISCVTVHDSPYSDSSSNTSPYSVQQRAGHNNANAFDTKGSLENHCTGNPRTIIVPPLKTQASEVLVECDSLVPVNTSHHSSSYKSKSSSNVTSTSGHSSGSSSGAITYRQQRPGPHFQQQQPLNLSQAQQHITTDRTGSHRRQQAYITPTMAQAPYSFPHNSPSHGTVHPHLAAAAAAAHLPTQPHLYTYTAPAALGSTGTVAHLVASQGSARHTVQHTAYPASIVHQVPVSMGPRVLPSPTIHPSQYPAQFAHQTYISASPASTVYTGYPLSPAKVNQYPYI
T2 sequence (P51617 whole entry): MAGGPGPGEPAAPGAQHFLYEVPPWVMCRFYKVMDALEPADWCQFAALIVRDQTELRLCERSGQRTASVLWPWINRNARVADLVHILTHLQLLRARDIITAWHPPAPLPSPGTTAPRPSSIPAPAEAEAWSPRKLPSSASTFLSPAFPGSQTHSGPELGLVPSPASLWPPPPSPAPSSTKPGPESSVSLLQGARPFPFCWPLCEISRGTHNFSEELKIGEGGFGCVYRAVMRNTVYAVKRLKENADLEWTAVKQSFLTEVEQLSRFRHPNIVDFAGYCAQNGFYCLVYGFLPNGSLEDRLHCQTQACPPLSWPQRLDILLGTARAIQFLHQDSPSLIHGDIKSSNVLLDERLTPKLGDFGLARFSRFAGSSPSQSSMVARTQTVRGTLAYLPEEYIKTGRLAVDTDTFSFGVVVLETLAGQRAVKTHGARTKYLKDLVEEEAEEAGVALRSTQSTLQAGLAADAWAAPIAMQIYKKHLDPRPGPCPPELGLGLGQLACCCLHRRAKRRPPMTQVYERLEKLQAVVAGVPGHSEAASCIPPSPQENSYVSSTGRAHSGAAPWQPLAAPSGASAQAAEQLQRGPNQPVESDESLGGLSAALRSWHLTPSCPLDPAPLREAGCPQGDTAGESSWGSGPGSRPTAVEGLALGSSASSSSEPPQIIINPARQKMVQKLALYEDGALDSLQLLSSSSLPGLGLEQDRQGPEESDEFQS
T9 sequence (P78368 whole entry): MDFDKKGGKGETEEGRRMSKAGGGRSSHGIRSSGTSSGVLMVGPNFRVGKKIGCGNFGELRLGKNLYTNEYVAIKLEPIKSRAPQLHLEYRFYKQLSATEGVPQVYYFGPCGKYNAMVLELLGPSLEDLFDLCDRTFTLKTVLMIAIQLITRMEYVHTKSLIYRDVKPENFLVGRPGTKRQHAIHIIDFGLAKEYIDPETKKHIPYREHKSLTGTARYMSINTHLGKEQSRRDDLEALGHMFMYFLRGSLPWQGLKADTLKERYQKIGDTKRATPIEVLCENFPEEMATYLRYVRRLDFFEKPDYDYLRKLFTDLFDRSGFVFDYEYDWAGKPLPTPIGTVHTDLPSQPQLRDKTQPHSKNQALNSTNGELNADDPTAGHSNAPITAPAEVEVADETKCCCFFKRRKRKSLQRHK
T3 sequence (Q9H422 whole entry): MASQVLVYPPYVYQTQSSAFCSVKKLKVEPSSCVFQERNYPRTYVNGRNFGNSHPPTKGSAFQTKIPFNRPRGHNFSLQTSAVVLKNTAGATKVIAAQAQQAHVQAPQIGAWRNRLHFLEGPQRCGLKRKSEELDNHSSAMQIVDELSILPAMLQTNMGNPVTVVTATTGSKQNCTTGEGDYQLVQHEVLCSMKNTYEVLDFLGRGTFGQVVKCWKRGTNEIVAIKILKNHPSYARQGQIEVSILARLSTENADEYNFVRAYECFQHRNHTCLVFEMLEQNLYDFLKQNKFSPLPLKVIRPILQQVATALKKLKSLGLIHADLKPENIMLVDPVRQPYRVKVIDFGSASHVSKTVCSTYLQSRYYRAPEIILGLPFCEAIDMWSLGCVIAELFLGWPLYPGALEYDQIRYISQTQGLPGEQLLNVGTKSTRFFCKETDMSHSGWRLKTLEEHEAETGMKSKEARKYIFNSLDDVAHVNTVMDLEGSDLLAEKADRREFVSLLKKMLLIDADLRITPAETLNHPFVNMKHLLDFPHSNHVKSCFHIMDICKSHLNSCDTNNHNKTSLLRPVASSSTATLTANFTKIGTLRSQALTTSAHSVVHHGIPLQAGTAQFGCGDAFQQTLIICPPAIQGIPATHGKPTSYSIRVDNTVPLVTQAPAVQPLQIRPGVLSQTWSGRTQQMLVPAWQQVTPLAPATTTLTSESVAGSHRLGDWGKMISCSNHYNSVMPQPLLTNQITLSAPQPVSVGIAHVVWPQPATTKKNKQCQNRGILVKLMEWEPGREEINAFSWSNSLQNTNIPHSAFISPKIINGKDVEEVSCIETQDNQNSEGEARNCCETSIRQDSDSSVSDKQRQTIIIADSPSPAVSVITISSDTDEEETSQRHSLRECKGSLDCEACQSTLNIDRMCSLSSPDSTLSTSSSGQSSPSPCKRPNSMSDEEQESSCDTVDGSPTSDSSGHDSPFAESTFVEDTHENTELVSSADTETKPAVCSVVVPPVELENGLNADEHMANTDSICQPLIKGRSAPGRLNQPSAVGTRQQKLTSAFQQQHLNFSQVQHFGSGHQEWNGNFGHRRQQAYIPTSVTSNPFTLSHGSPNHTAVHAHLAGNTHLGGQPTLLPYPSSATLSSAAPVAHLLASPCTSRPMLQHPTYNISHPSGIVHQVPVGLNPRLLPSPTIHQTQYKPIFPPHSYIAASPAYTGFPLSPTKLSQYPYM

COc1ccc2c(c1)[nH]c1c(N3CCCC3)nccc12 [Compound 1-6b, 1-(Pyrrolidin-1-yl)-7-Methoxy-9H-β-Carboline]
human β-cell proliferation (in words) ([1]; concentration not given): did not show any β-cell proliferation

CCCC(C)NC(=O)C(C)(C)CCn1c2cc(OC)ccc2c2ccnc(C)c21 (stereo not drawn) [Compound 20-10l, N-(1-methylbutyl)-4-(7-Methoxy-1-methyl-β-carbolin-9-yl)-α,α-dimethylbutanamide]
IC50 (DYRK1A): 77 nM

COc1ccc2c3ccnc(C)c3n(CCCCc3noc(N)n3)c2c1 [Compound 20-38c, 5-(5-(7-methoxy-1-methyl-β-carbolin-9-yl)butyl)-5-amino-1,2,4-oxadiazole]
IC50 (DYRK1A): 103 nM

COc1ccc2c(c1)[nH]c1c(CO)nccc12 [Compound 2-2, 1-Hydroxymethyl-7-Methoxy-9H-β-Carboline]
% DMSO Ctrl (CSNK2A1): no inhibition | % DMSO Ctrl (IRAK1): no inhibition | % DMSO Ctrl (HIPK3): no inhibition | remaining binding at 10 µM (FLT3(D835V)): 37% | remaining binding at 10 µM (PIM3): 77% | % DMSO Ctrl (VPS34): no inhibition | remaining binding at 10 µM (PIK3CG): 44% | remaining binding at 10 µM [2]: 99% | beta cell toxicity ([1]; at 30 μM): did not cause toxicity | % DMSO Ctrl (CSNK1G2): no inhibition | NFAT2 translocation to nucleus [3]: drove NFAT2 translocation to nucleus | % DMSO Ctrl (HIPK2): no inhibition

COc1ccc2c(c1)[nH]c1c(C(C)=O)nccc12 [Compound 3-2, 1-acetyl-7-methoxy-9H-β-carboline]
human β-cell proliferation (in words) [1, 4]: reduced β-cell proliferation | human β-cell proliferation (in words) ([1]; 30 μM): proliferation in the range comparable to harmine | human β-cell proliferation (in words) ([1]; concentration not given): human β-cell proliferation comparable to that of harmine

C#CCCn1c2cc(OC)ccc2c2ccnc(C)c21 [Compound 20-23b, 4-(7-Methoxy-1-methyl-β-carbolin-9-yl)-but-1-yne]
IC50 (DYRK1A): 33 nM

COc1ccc2c3ccnc(C)c3n(Cc3ccccc3)c2c1 [Compound 20-1x, 1-(7-Methoxy-1-methyl-β-carbolin-9-yl)-1-phenylmethane]
IC50 (DYRK1A): 275 nM

COc1ccc2c3ccnc(C)c3n(CCC(C)(C)C(N)=O)c2c1 [Compound 20-40, 2,2-dimethyl-4-(7-Methoxy-1-methyl-β-carbolin-9-yl)butanamide]
IC50 (DYRK1A): 20 nM

COc1ccc2c(c1)[nH]c1c(N3CCCC3Cc3ccccc3)nccc12 (stereo not drawn) [Compound 1-6f, 1-(2-Benzylpyrrolidin-1-yl)-7-Methoxy-9H-β-Carboline]
human β-cell proliferation (in words) ([1]; concentration not given): did not show any β-cell proliferation

COc1ccc2c(c1)[nH]c1c(N3CCC3)nccc12 [Compound 1-6a, 1-(Azetidin-1-yl)-7-Methoxy-9H-β-Carboline]
human β-cell proliferation (in words) ([1]; concentration not given): did not show any β-cell proliferation

COc1ccc2c3ccnc(C)c3n(CCc3ccccc3)c2c1 [Compound 20-1y, 2-(7-Methoxy-1-methyl-β-carbolin-9-yl)-1-phenylethane]
IC50 (DYRK1A): 31 nM

Ethyl 4-(7-Methoxy-1-methyl-β-carbolin-9-yl)butanecarboximidate hydrochloride [Compound 20-22]
Human β-Cell proliferation ([1]; 10 μM): 0.8 (10)

COCCn1cc(CCCn2c3cc(OC)ccc3c3ccnc(C)c32)nn1 [Compound 20-24b, 4-(3-(7-Methoxy-1-methyl-β-carbolin-9-yl)propyl)-1-(2-methoxyethyl)-1,2,3-triazole]
IC50 (DYRK1A): 437 nM

4-(7-Methoxy-1-methyl-β-carbolin-9-yl)propionitrile [Compound 20-1o]
Human β-Cell proliferation ([1]; 10 μM): 1 (10)

Cc1nccc2c1[nH]c1cc(OCCCCCC(N)=O)ccc12 [Compound 10-3e, 6-(7-oxy-1-methyl-9-H-b-carbolin)hexanamide]
Human β-Cell proliferation ([1]; 10 μM): 0.2 (10) | human β-cell proliferation (in words) ([1]; concentration not given): reduced jβ-cell proliferation compared to harmine

COc1ccc2c(c1)[nH]c1c(Cl)nccc12 [Compound 1-5, 1-Chloro-7-Methoxy-9H-β-Carboline]
human β-cell proliferation (in words) [1, 4]: very good human β-cell proliferation | human β-cell proliferation (in words) ([1]; concentration not given): human β-cell proliferation comparable to that of harmine

COc1ccc2c(c1)[nH]c1c(N3CCCC3c3ccccc3)nccc12 (stereo not drawn) [Compound 1-6d, 1-(2-Phenylpyrrolidin-1-yl)-7-Methoxy-9H-β-Carboline]
human β-cell proliferation (in words) ([1]; concentration not given): did not show any β-cell proliferation

COc1ccc2c3ccnc(C)c3n(CCc3noc(N)n3)c2c1 [Compound 20-38b, 3-(3-(7-methoxy-1-methyl-β-carbolin-9-yl)ethyl)-5-amino-1,2,4-oxadiazole]
IC50 (DYRK1A): 66 nM

COc1ccc2c3ccnc(C)c3n(Cc3noc(N)n3)c2c1 [Compound 20-38a, 1-(1-(7-methoxy-1-methyl-β-carbolin-9-yl)methyl)-5-amino-1,2,4-oxadiazole]
IC50 (DYRK1A): 138 nM

C=CCn1c2cc(OC)ccc2c2ccnc(C)c21 [Compound 20-1t, 3-(7-Methoxy-1-methyl-β-carbolin-9-yl)-propan-1-ene]
IC50 (DYRK1A): 42 nM

COc1ccc2c3ccnc(C)c3n(CCCC(N)=O)c2c1 [Compound 20-2c, 4-(7-Methoxy-1-methyl-β-carbolin-9-yl)butanamide]
% DMSO Ctrl (FLT3(ITD)): 57 % DMSO Ctrl | % DMSO Ctrl (FLT3(ITD,D835V)): 38 % DMSO Ctrl
